According to the supplement of paper PMC3974653:
Structures can show the parent of a compound that is named as a salt.

test system: MTT (mouse pheochromocytoma); assay: IC50 of cell viability (ATP content); details: (24 or 48 h)
In short: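 Cells of the MTT mouse pheochromocytoma line, 5 µl per well at 200,000 cells/ml, were grown overnight at 37°C, 5% CO2 in white 1536-well plates with DMEM, 5% FBS and 1% horse serum. Pintool transfer then delivered 23 nl of library compound in DMSO, giving 8 final concentrations from 0.5 nM to 46 µM, for an exposure of 24 or 48 hrs. Luminescence from CellTiter-Glo was read after 15 minutes and referenced to positive-control wells (100%) and DMSO wells (0%). IC50 was calculated with a four-parameter logistic fit.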

| SMILES | IC50 of cell viability [µM] |
| --- | --- |
| CC(C)=CCN1CC[C@@]2(C)c3cc(O)ccc3C[C@H]1[C@@H]2C [(+)-Pentazocine] | > 46 |
| CCCC[C@H](O)c1ccccc1 [FENIPENTOL] | > 46 |
| c1ccc2c(c1)Nc1ccccc1S2 [Phenothiazine] | > 46 |
| CC(C)C(=O)Nc1ccc([N+](=O)[O-])c(C(F)(F)F)c1 [Flutamide] | > 46 |
| CCCCO [n-Butyl alcohol] | > 46 |
| CN(c1nccc(O)n1)C1CCN(c2nc3ccccc3n2Cc2ccc(F)cc2)CC1 [MIZOLASTINE] | > 46 |
| CCOC(=O)c1c(C)n(C)c2ccc(O)cc12 [Mecarbinate] | > 46 |
| COC1=C2O\C(=C/C(=O)C2=C(OC)C3=C1OC=C3)C [Khellin] | > 46 |
| CC(C)C[C@H](NC(=O)[C@@H](Cc1c[nH]c2ccccc12)NC(=O)[C@@H](Cc1ccc(O)cc1)NC(=O)[C@@H](CO)NC(=O)[C@@H](Cc1c[nH]c2ccccc12)NC(=O)C(Cc1c[nH]cn1)NC(=O)C1CCC(=O)N1)C(=O)N[C@@H](CCCNC(=N)N)C(=O)N1CCC[C@@H]1C(=O)NCC(N)=O (some centres undefined) [TRIPTORELIN PAMOATE] | > 46 |
| COC(=O)C(c1ccccc1)C1CCCCN1.[Cl-].[H+] (centres undefined) [Methylphenidate hydrochloride] | > 46 |
| O=C(Nc1ccc(O)cc1)c1ccccc1O [Osalmid] | > 46 |
| CN1CCN(CC1)\C2=N\C3=C(OC4=C2C=C(Cl)C=C4)C=CC=C3.OC(=O)CCC(O)=O [Loxapine succinate] | > 46 |
| COc1ccc(Cl)cc1C(=O)NCCc1ccc([S+](=O)([O-])NC(=O)NC2CCCCC2)cc1 [GLYBURIDE] | > 46 |
| CCCOc1cc(N)ccc1C(=O)OCCN(CC)CC [Propoxycaine hydrochloride] | > 46 |
| CCOc1ccc(C[C@H]2NC(=O)CCSSC[C@@H](C(=O)N3CCC[C@H]3C(=O)N[C@@H](CCCN)C(=O)NCC(N)=O)NC(=O)[C@H](CC(N)=O)NC(=O)[C@H]([C@@H](C)O)NC(=O)[C@H]([C@@H](C)CC)NC2=O)cc1 [Atosiban] | > 46 |
| CNC1(c2ccccc2Cl)CCCCC1=O (centres undefined) [Cetamina] | > 46 |
| CC12CCC(CC1)C(C)(C)O2 [Eucalyptol] | > 46 |

| SMILES | IC50 of cell viability [µM] |
| --- | --- |
| CCOC(=O)NNc1ccc(N(CC)CC(C)O)nn1 (centres undefined) [Cadralazine] | > 46 |
| Cc1ncc(CO)c(CN)c1O [Pyridoxamine dichlorohydrate] | > 46 |
| CCCCC(CC)COC(=O)CC(C(=O)OCC(CC)CCCC)S(=O)(=O)[O-] (centres undefined) [Colace] | > 46 |
| ClC1=CC=C(C=C1)C(C#N)C2=C(Cl)C=C(C=C2Cl)N3\N=C/C(=O)NC3=O (centres undefined) [DICLAZURIL] | > 46 |
| CC12C=CC(=O)C=C1CCC1C2C(O)CC2(C)C1CCC2(O)C(=O)COC(=O)CCC(=O)O (centres undefined) [Prednisolone 21-hemisuccinate] | > 46 |
| O=C(O)CP(=O)(O)O [Phosphonoacetic acid] | > 46 |
| CC1(C)NC(=O)N(c2ccc([N+](=O)[O-])c(C(F)(F)F)c2)C1=O [Nilutamide] | > 46 |
| Cc1nc(-c2ccc(OCC(C)C)c(C#N)c2)sc1C(=O)O [Febuxostat] | > 46 |
| CN1CCC(N(Cc2cccs2)c2ccccc2)CC1 [Thenalidine] | > 46 |
| Nc1ncnc(Nc2ccccc2)n1 [Amanozine] | > 46 |
| Cc1cc(O)c(C(C)C)cc1Cl [CHLOROTHYMOL] | > 46 |
| CC1OC(O[C@H]2C[C@@H](O)[C@]3(CO)[C@H]4[C@H](O)C[C@]5(C)[C@@H](C6=CC(=O)OC6)CC[C@]5(O)[C@@H]4CC[C@]3(O)C2)C(O)C(O)C1O (some centres undefined) [OUABAIN] | > 46 |
| c1cnc2cc3c(cc2n1)C1CNCC3C1 [Varenicline] | > 46 |
| CCN(C(C)=O)c1cccc(-c2ccnc3c(C#N)cnn23)c1 [Zaleplon] | > 46 |
| CC(=O)Nc1nnc([S+](N)(=O)[O-])s1 [Acetazolamide] | > 46 |
| CCCCN1CCCC[C@H]1C(=O)Nc1c(C)cccc1C [Levobupivacaine hydrochloride] | > 46 |
| CN(C)CC/C=C1\c2ccccc2CSc2ccccc21 [Dosulepin hydrochloride] | > 46 |
